Tests used:
[1] = target: hα6(N46K) + codon optimized hβ2 + hβ3^V9’S nAChR (Homo sapiens, UniProt P17787+Q15825, N46K); settings: 100 μM nicotine; oocytes clamped at −70 mV
Method: (§1) We planned to introduce identical amounts of cRNA, presumably producing equal amounts of each subunit protein, into oocytes largely due to lack of information about the levels of mRNA for each subunits that compose α6*-nAChRs in neurons or other cells. Concentrations of cRNAs for each nAChR α and β subunits (WT, mutant or variant) were adjusted to 500 ng μL^−1. We provisionally assumed that hα6 or its variants in association with hβ2 or hβ4 subunits would form complexes having 2:3 and/or 3:2 ratios of the indicated subunits and that oocytes also injected with WT or mutant form of β3 subunits (i.e., β3^V9’S) would express nAChR with 2:2:1 ratios of α:β:(β3 or β3^V9’S) subunits. For expression of binary nAChRs (i.e., two subunit containing nAChRs; α + β but not β3) cRNA mixtures were prepared by mixing 1 μL of cRNA for each subunit and an additional μL of RNAse free water (i.e., total volume 3 μL). Similarly for expression of ternary nAChRs [i.e., three subunit containing nAChRs; (α + β) + (β3 or β3^V9’S)] cRNA mixtures were prepared by mixing 1 μL of cRNA for each subunit. Several preparations of each mixture were prepared and stored at −80°C until further use. Injection of 138 nL of cRNA, out of 3 μL cRNA mixtures, into each oocyte would deliver ~23 ng of cRNA for each subunit whether binary or ternary nAChRs are expressed.
(§2) Two to 5 days after injection, oocytes were placed in a small-volume chamber and continuously perfused with OR2. The chamber was grounded through an agarose bridge. The oocytes were voltage-clamped at −70 mV (unless otherwise noted) to measure agonist or antagonist induced currents using Axoclamp 900A and pClamp 10.2 software (Molecular Devices, Sunnyvale, CA). The current signal was low-pass filtered at 10 Hz with the built-in low-pass Bessel filter in the Axoclamp 900A and digitized at 20 Hz with Axon Digidata1440A and pClamp10. […] Drugs (agonists and antagonists) were prepared daily in OR2. Drug was applied using a Valvelink 8.2 perfusion system (Automate scientific, Berkeley, CA). […] Then for the purpose of comparison electrophysiological recordings were performed in a given day in a given batch of oocytes following the same order of injections. […] All hβ4*-nAChR recordings were done in similar conditions to facilitate comparisons between hα6hβ4- and hα6hβ4hβ3-nAChRs. All electrophysiological measurements were conducted or checked in at least two batches of oocytes.
(§3) Raw data was collected and processed in part using pClamp 10.2 (Molecular Devices, Sunnyvale, CA), Origin 7.5 (OriginLab Corporation, Northampton, MA) and a spreadsheet (Excel; Microsoft, Bellevue, WA). Peak current amplitudes (Imax) are reported as mean ± SEM (for results from at least three oocytes, i.e., n = 3).

hα6(S43P) + hβ4 nAChR = hα6(S43P) + hβ4 nAChR (Homo sapiens, UniProt P30926+Q15825, S43P); settings: 100 μM nicotine; oocytes clamped at −70 mV
Method: as §1, §2, §3

hα6(A112V) + hβ4 nAChR = hα6(A112V) + hβ4 nAChR (Homo sapiens, UniProt P30926+Q15825, A112V); settings: 100 μM nicotine; oocytes clamped at −70 mV
Method: as §1, §2, §3

hα6(N203T) + hβ4 nAChR = hα6(N203T) + hβ4 nAChR (Homo sapiens, UniProt P30926+Q15825, N203T); settings: 100 μM nicotine; oocytes clamped at −70 mV
Method: as §1, §2, §3

[2] = target: hα6(D92E) + codon optimized hβ2 + hβ3^V9’S nAChR (Homo sapiens, UniProt P17787+Q15825, D92E); settings: 100 μM nicotine; oocytes clamped at −70 mV
Method: as §1, §2, §3

[3] = target: hα6 + codon optimized hβ2 + hβ3^V9’S nAChR (Homo sapiens, UniProt P17787+Q15825); settings: 100 μM nicotine
Method: as §1, §2, §3

[4] = target: hα6(D57N) + WT hβ2 + hβ3^V9’S nAChR (Homo sapiens, UniProt P17787+Q15825, D57N); settings: nicotine
Method: as §1, §2, §3

[5] = target: hα6(E101K) + WT hβ2 + hβ3^V9’S nAChR (Homo sapiens, UniProt P17787+Q15825, E101K); settings: 100 μM nicotine; 3 days after cRNA injection
Method: as §1, §2, §3

[6] = target: hα6(E101K) + hβ4 + hβ3 nAChR (Homo sapiens, UniProt P30926+Q15825, E101K); settings: 100 μM nicotine; oocytes clamped at −70 mV
Method: as §1, §2, §3

[7] = target: hα6(S156R) + hβ4 + hβ3 nAChR (Homo sapiens, UniProt P30926+Q15825, S156R); settings: nicotine
Method: as §1, §2, §3

[8] = target: hα6(A112V) + hβ4 + hβ3 nAChR (Homo sapiens, UniProt P30926+Q15825, A112V); settings: 100 μM nicotine; oocytes clamped at −70 mV
Method: as §1, §2, §3

[9] = target: hα6(A184D) + WT hβ2 + hβ3^V9’S nAChR (Homo sapiens, UniProt P17787+Q15825, A184D); settings: 100 μM nicotine; 3 days after cRNA injection
Method: as §1, §2, §3

[10] = target: hα6(I226T) + hβ4 + hβ3 nAChR (Homo sapiens, UniProt P30926+Q15825, I226T); settings: 100 μM nicotine; oocytes clamped at −70 mV
Method: as §1, §2, §3

[11] = target: hα6(D92E) + hβ4 + hβ3 nAChR (Homo sapiens, UniProt P30926+Q15825, D92E); settings: 100 μM nicotine; oocytes clamped at −70 mV
Method: as §1, §2, §3

[12] = target: hα6(D199Y) + codon optimized hβ2 + hβ3^V9’S nAChR (Homo sapiens, UniProt P17787+Q15825, D199Y); settings: 100 μM nicotine; oocytes clamped at −70 mV
Method: as §1, §2, §3

[13] = target: hα6(N203T) + WT hβ2 + hβ3^V9’S nAChR (Homo sapiens, UniProt P17787+Q15825, N203T); settings: 100 μM nicotine
Method: as §1, §2, §3

hα6 + hβ4 + hβ3 nAChR = hα6 + hβ4 + hβ3 nAChR (Homo sapiens, UniProt P30926+Q15825); parameters: method as in PMID 11044728; settings: ref [29]; cited from earlier work

hα6 + codon optimized hβ2 + hβ3^V9’S nAChR, sequence (Q15825 26-494): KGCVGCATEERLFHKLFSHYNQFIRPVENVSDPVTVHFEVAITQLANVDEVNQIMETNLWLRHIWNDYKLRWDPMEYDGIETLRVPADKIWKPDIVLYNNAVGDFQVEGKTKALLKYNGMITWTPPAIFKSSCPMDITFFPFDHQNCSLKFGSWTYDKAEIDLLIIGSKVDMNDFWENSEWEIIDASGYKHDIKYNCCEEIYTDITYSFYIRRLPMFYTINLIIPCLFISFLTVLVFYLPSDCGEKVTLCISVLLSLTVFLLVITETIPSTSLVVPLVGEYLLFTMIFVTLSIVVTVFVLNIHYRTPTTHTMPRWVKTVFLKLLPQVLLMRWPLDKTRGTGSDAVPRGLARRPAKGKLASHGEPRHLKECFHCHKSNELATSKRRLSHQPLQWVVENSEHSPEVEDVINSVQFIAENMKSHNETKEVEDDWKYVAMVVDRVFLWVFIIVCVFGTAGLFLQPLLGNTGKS
hα6 + codon optimized hβ2 + hβ3^V9’S nAChR, sequence (P17787 26-502): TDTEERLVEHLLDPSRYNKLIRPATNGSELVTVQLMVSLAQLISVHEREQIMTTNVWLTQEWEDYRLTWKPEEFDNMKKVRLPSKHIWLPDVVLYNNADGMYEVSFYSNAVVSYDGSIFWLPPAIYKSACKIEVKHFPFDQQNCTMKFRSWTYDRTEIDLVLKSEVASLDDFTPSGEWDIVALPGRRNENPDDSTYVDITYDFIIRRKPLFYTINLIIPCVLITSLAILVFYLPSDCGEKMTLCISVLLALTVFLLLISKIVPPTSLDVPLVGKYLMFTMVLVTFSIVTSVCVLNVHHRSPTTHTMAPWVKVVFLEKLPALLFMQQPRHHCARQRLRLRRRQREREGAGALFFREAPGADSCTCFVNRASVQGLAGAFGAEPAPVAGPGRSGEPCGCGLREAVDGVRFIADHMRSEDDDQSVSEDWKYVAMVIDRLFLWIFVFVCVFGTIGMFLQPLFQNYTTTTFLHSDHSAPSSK
hα6 + codon optimized hβ2 + hβ3^V9’S nAChR, sequence (Q05901 22-458 V273S partner): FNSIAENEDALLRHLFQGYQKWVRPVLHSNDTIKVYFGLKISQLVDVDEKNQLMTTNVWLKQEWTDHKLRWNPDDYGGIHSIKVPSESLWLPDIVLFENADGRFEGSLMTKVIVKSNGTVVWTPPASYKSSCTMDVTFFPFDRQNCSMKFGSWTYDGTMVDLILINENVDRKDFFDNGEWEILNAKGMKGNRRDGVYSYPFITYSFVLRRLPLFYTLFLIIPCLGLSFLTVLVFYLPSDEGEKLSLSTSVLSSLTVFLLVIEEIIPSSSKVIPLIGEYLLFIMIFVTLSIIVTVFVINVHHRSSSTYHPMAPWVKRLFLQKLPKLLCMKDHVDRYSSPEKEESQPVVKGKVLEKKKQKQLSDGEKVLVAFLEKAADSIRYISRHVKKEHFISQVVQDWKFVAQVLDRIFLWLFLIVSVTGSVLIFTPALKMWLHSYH
hα6(N203T) + WT hβ2 + hβ3^V9’S nAChR, sequence (Q15825 26-494 N203T): as the sequence (Q15825 26-494) above, with N178T counted along it
hα6(N203T) + WT hβ2 + hβ3^V9’S nAChR, sequence (P17787 26-502): as the sequence (P17787 26-502) above
hα6(N203T) + WT hβ2 + hβ3^V9’S nAChR, sequence (Q05901 25-458 V273S partner limits assumed): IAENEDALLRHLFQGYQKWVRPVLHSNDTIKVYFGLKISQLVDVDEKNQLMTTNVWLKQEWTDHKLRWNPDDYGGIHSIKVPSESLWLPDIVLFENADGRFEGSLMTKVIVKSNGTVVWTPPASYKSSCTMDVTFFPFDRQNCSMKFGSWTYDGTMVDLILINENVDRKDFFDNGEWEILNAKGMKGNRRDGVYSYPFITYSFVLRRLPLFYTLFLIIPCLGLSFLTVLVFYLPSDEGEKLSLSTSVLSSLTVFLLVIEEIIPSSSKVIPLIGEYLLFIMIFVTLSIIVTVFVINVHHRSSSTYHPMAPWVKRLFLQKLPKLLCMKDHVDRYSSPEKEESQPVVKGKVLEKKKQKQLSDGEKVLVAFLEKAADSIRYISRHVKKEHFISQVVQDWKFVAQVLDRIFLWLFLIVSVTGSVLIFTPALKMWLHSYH
hα6(A112V) + hβ4 + hβ3 nAChR, sequence (Q15825 26-494 A112V): as the sequence (Q15825 26-494) above, with A87V counted along it
hα6(A112V) + hβ4 + hβ3 nAChR, sequence (P30926 22-498): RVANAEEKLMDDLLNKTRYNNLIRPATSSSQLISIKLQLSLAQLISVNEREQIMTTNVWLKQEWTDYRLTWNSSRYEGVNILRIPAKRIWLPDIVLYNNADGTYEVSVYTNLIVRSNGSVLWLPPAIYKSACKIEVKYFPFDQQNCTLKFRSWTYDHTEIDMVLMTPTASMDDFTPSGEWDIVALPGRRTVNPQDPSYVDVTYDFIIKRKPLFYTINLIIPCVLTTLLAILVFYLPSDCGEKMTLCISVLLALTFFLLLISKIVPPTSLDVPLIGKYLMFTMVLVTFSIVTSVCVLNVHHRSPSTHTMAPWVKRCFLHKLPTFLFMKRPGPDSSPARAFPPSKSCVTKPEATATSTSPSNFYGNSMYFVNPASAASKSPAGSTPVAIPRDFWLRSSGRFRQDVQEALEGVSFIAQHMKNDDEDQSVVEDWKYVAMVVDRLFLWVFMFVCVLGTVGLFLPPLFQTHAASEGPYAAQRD
hα6(A112V) + hβ4 + hβ3 nAChR, sequence (Q05901 25-458 partner limits assumed): as the sequence (Q05901 25-458 V273S partner limits assumed) above, with S249V counted along it

## CN1CCC[C@H]1c1cccnc1 [nicotine, L-nicotine]
[1]
  peak current (Imax, mean ± SE): 118 ± 33 nA
hα6(S43P) + hβ4 nAChR
  peak current (Imax, mean ± SE): 39 ± 5 nA
hα6(A112V) + hβ4 nAChR
  peak current (Imax, mean ± SE): 110 ± 22 nA
hα6(N203T) + hβ4 nAChR
  peak current (Imax, mean ± SE): 33 ± 3 nA
[2]
  peak current (Imax, mean ± SE): 66 ± 20 nA
[3]; codon optimized vs. WT hβ2
  current response relative to receptor with WT hβ2: ~ 31 fold
[3]; oocytes clamped at −70 mV
  peak current (Imax, mean ± SE): 469 ± 75 nA
[4]
  current response: did not yield current responses
[5]
  peak current response: 15-30 nA
[6]
  Mean (±SE) peak current response: 467 ± 54 nA
[7]
  current response: did not elicit current responses
[8]
  Mean (±SE) peak current response: 482 ± 59 nA
[9]
  peak current response: 15-30 nA
[10]
  Mean (±SE) peak current response: 403 ± 79 nA
[11]
  Mean (±SE) peak current response: 126 ± 5 nA
[12]
  peak current (Imax, mean ± SE): 2076 ± 68 nA
[13]; 3 days after cRNA injection
  peak current response: 15-30 nA
[13]; 5 days after injection
  Mean (±SEM) current response: 53 ± 12 nA
hα6 + hβ4 + hβ3 nAChR
  EC50: 10 ± 3 µM

Reference: publication PMC4022547 (Molecular Brain, 2014)
